# Experimental data reported in patent US8889701B1, “Substituted (S)-(2R,3R,5R)-3-hydroxy-(5-pyrimidin-1-yl)tetrahydrofuran-2-ylmethyl aryl phosphoramidate” (Alla Chem, LLC, priority 2013, dated 2014).
# System: HCV replicon (genotype 1b, Con1 isolate) in human hepatoma cell line Huh7
# Test: not given
# Conditions: literature value, Murakami et al., J. Biol. Chem. 285(45), 34337-34347 (2010); read-out: EC50 of known inhibitor PSI-7851 (literature); cited from earlier work
row,Compound,EC50
1,"CC(C)OC(=O)[C@H](C)NP(=O)(OC[C@H]1O[C@@H](n2ccc(=O)[nH]c2=O)[C@](C)(F)[C@@H]1O)Oc1ccccc1 (some centres unmarked) [PSI-7851, reference compound]",75 nM

# System: HCV replicon (genotype 1b, Con1 isolate) in human hepatoma cell line Huh7
# Test: HCV replicon assay (antiviral activity, anti-HCV core ELISA readout)
# Format: cell-based
# Conditions: Hepatitis C virus, Huh-7, 72 h, read-out: EC50, activity against HCV genotype 1b
# Procedure: The HCV replicon assay was used to determine the antiviral activity of substituted phosphoramidic acid esters of the general formula 1, 1.1, 1.2, 2, 2.1, and 2.2 (test compounds). The test cell line used in the HCV Replicon Assay was a human hepatoma cell line Huh7 incorporating the HCV replicon (genotype 1b, Con1 isolate). 96-well plates were seeded with cells at a density of 7.5×10^3 cells per well in 50 μl of assay media. Test compound stock solution was made up freshly in assay medium (DMEM 1×, Cellgro; cat. #10-013-CV) as a 2× stock. A total of 11 serial 3-fold dilutions of test compounds were prepared from the 2× stock in assay media ranging from 20 nM-0.2 pM final concentrations. At least 4 hours after cells were seeded, compound treatment was initiated by adding 50 μl of compound dilution to the plates. […] The final DMSO concentration was 0.5%. Cells and inhibitors incubated for 3 days at 37° C./5% CO2. Media was removed from the plates via gentle tapping. Cells were fixed with 100 μl 1:1 acetone:methanol for 1 minute, washed three times with PBS buffer, and then blocked with 150 μl/well 10% Fetal Bovine Serum (FBS) in PBS for 1 hour at room temperature. Cells were washed three times with PBS buffer, and incubated with 100 μl/well anti-hepatitis C core mAb (Affinity BioReagents; cat. # MA1-080, 1 mg/ml stock diluted 1:4,000 in 10% FBS-PBS) for 2 hours at 37° C. Cells were washed three times with PBS and incubated with 100 μl/well HRP-Goat Anti-Mouse antibody (diluted 1:3.500 in 10% FBS-PBS) for 1 hour at 37° C. Cells were washed three times with PBS and developed with 100 μl/well OPD solution (1 OPD tablet+12 ml citrate/phosphate buffer+5 μl 30% H2O2 per plate) for 30 minutes in the dark at room temperature. The reaction was stopped with 100 μl/well of 2N H2SO4, and absorbance measured at A490 X on a Victor^3 V 1420 multilabel counter (Perkin Elmer). The EC50 values were calculated for test compounds from the resulting best-fit equations determined by Xlfit software.
row,Compound,EC50
1,"CC(=O)Nc1ccn([C@@H]2O[C@H](CO[P@@](=O)(N[C@H]3CCOC3=O)Oc3ccccc3)[C@@H](OC(C)=O)C2(F)F)c(=O)n1 [1(4), (2R,3R,5R)-5-(4-acetamido-2-oxopyrimidin-1(2H)-yl)-4,4-difluoro-2-(((S)—((S)-2-oxotetrahydrofuran-3-ylamino)(phenoxy)phosphoryloxy)methyl)tetrahydrofuran-3-yl acetate]",42.1 nM
2,"CN1CCCC(NP(=O)(OC[C@H]2O[C@@H](n3ccc(NC(=O)OCc4ccccc4)nc3=O)C(F)(F)[C@@H]2OC(=O)OCc2ccccc2)Oc2ccccc2)C1=O (stereo partly drawn) [1(7), benzyl 1-((2R,4R,5R)-4-(benzyloxycarbonyloxy)-3,3-difluoro-5-(((1-methyl-2-oxopiperidin-3-ylamino)(phenoxy)phosphoryloxy)methyl)tetrahydrofuran-2-yl)-2-oxo-1,2-dihydropyrimidin-4-ylcarbamate]",552 nM
3,"CN1CCCC(NP(=O)(OC[C@H]2O[C@@H](n3ccc(N)nc3=O)C(F)(F)[C@@H]2O)Oc2ccccc2)C1=O (stereo partly drawn) [1(8), ((2R,3R,5R)-5-(4-amino-2-oxopyrimidin-1(2H)-yl)-4,4-difluoro-3-hydroxytetrahydrofuran-2-yl)methyl phenyl 1-methyl-2-oxopiperidin-3-ylphosphoramidate]",873 nM
4,"O=C1OCCC1NP(=O)(OC[C@H]1O[C@@H](n2ccc(=O)[nH]c2=O)C(F)(F)[C@@H]1O)Oc1ccccc1 (stereo partly drawn) [1.1.(1), ((2R,3R,5R)-5-(2,4-dioxo-3,4-dihydropyrimidin-1(2H)-yl)-4,4-difluoro-3-hydroxytetrahydrofuran-2-yl)methyl phenyl 2-oxotetrahydrofuran-3-ylphosphoramidate]",459 nM
5,"C[C@@]1(F)[C@H](O)[C@@H](COP(=O)(N[C@H]2CCOC2=O)Oc2ccccc2)O[C@H]1n1ccc(=O)[nH]c1=O (stereo partly drawn) [1.1.(2), ((2R,3R,4R,5R)-5-(2,4-dioxo-3,4-dihydropyrimidin-1(2H)-yl)-4-fluoro-3-hydroxy-4-methyltetrahydrofuran-2-yl)methyl phenyl (S)-2-oxotetrahydrofuran-3-ylphosphoramidate]",274 nM
6,"CN1CCC(NP(=O)(OC[C@H]2O[C@@H](n3ccc(=O)[nH]c3=O)C(F)(F)[C@@H]2O[Si](C)(C)C(C)(C)C)Oc2ccccc2)C1=O (stereo partly drawn) [1.1.(4), ((2R,3R,5R)-3-(tert-butyldimethylsilyloxy)-5-(2,4-dioxo-3,4-dihydropyrimidin-1(2H)-yl)-4,4-difluorotetrahydrofuran-2-yl)methyl phenyl 1-methyl-2-oxopyrrolidin-3-ylphosphoramidate]",40.5 nM
7,Nc1ccn([C@@H]2O[C@H](COP(=O)(N[C@H]3CCOC3=O)Oc3ccccc3)[C@@H](O)C2(F)F)c(=O)n1 (some centres unmarked) [1.2.(1)],19.8 nM
8,"CC(=O)O[C@@H]1[C@@H](COP(=O)(N[C@H]2CCOC2=O)Oc2ccccc2)O[C@@H](n2ccc(N)nc2=O)C1(F)F (stereo partly drawn) [1.2.(2), (2R,3R,5R)-5-(4-amino-2-oxopyrimidin-1(2H)-yl)-4,4-difluoro-2-((((S)-2-oxotetrahydrofuran-3-ylamino)(phenoxy)phosphoryloxy)methyl)tetrahydrofuran-3-yl acetate]",27 nM
9,CN1CCC(N[P@](=O)(OC[C@H]2O[C@@H](n3ccc(N)nc3=O)C(F)(F)[C@@H]2O)Oc2ccccc2)C1=O (some centres unmarked) [2.2.(1)],219 nM
10,"CC(C)OC(=O)[C@H](C)NP(=O)(OC[C@H]1O[C@@H](n2ccc(=O)[nH]c2=O)[C@](C)(F)[C@@H]1O)Oc1ccccc1 (some centres unmarked) [PSI-7851, reference compound]",59.4 nM
